This test has as its target T1, human GPR40 (Homo sapiens, UniProt O14842).
T1 construct: expressed in transfected cells
In words: Determination of EC50 on human GPR40 (intracellular calcium change by FLIPR in CHO cells stably expressing human GPR40). The class given is cell-based. Conditions: CHO cell line stably expressing human GPR40; changes in intracellular calcium concentration measured by FLIPR (Fluo3-AM); read-out: EC50 (Receptor Function Modulating Action on GPR40). The protocol: Determination of EC50 of the Compound of Example on Human GPR40
For determination of EC50, CHO cell line that stably expressed human GPR40 was used. Unless otherwise indicated, the CHO cell line was cultured using α-MEM medium (Invitrogen) containing 10% fetal calf serum (Invitrogen).
The cells cultured to nearly confluent were rinsed with PBS (Invitrogen) on the previous day of the assay, peeled off with 0.05% Trypsin•EDTA solution (Invitrogen) and recovered by centrifugation. The number of the obtained cells was counted, and the cells were diluted such that 3×10^5 cells were contained per 1 mL of the medium, dispensed to a Black welled 96-well plate (coster) by 100 μL per well and cultured overnight in a CO2 incubator. Various test samples were added to the CHO cells thus prepared, and the changes in the intracellular calcium concentration were measured using FLIPR (Molecular Device). The below-mentioned pre-treatment was applied to measure changes in the intracellular calcium concentration by FLIPR.
An assay buffer for adding a fluorescence dye Fluo3-AM (DOJIN) to the cells, or for washing the cells immediately before FLIPR assay was prepared. To a solution of 1M HEPES (pH 7.4, DOJIN, 20 mL) added to HBSS (Invitrogen, 1000 mL) (hereinafter HBSS/HEPES solution) was added a solution (10 mL) obtained by dissolving probenecid (Sigma, 710 mg) in 1N NaOH (5 mL), and adding and mixing an HBSS/HEPES solution (5 mL), and the resulting solution was used as an assay buffer. Fluo3-AM (50 μg) was dissolved in dimethyl sulfoxide (Wako, 21 μL), and an equivalent amount of 20% pluronic acid (Molecular Probes) was added and mixed. The solution was added to the assay buffer (10.6 mL) supplemented with fetal calf serum (105 μL) to give a fluorescence dye solution. On the previous day of assay, the medium of the CHO cells newly inoculated to the Black welled 96-well plate was removed, the fluorescence dye solution was immediately dispensed by 100 μL per well and the cells were cultured in a CO2 incubator for 1 hr to allow intake of the fluorescence dye by the cells. The cells after the culture were washed with the above-mentioned assay buffer and set on FLIPR. The test sample was diluted with DMSO in advance, dispensed to polypropylene 96-well plate (sample plate) by 2 μL, and cryopreserved at −20° C. To the thawed sample plate was added an assay buffer containing 0.015% CHAPS (DOJIN) by 198 μL, and simultaneously set on FLIPR together with the cell plate. After the aforementioned pre-treatment, changes in the intracellular calcium concentration upon addition of various test samples were measured by FLIPR.
A general note: Calcium flux is commonly read through the fluorescence of an indicator in the cells.

Experimental findings from patent publication US7820837B2, “Condensed ring compound” (Takeda Pharmaceutical Company Limited, priority 2003, dated 2010) are described below.

A value given as a limit tells only on which side of the number the result lay.

T1 sequence (O14842 whole entry): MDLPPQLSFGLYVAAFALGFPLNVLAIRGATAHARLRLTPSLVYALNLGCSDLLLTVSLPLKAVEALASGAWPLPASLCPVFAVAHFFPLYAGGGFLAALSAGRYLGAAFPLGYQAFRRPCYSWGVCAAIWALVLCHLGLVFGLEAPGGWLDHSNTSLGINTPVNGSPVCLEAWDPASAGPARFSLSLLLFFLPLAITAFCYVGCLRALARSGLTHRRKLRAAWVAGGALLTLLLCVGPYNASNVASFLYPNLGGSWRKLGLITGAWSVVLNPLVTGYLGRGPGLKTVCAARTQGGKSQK

By EC50 is commonly meant the midpoint of the concentration-response curve. `O=C(O)CC1CCCc2cc(OCc3cccc(Oc4ccccc4)c3)ccc21` (stereo not drawn) [Example 6, (6-((3-phenoxybenzyl)oxy)-1,2,3,4-tetrahydro-1-naphthalenyl)acetic acid]: the EC50 was less than 100 nM.

For `Cc1cccc(C)c1-c1cccc(COc2ccc3c(c2)CCCC3CC(=O)O)c1` (stereo not drawn) [Example 11, {6-[(2′,6′-dimethylbiphenyl-3-yl)methoxy]-1,2,3,4-tetrahydronaphthalen-1-yl}acetic acid], the EC50 is less than 100 nM.

For the molecule `Cc1cccc(C)c1-c1cccc(COc2ccc3c(c2)OCCC(C(=O)O)C3)c1` (stereo not drawn) [Example 13, 8-[(2′,6′-dimethylbiphenyl-3-yl)methoxy]-2,3,4,5-tetrahydro-1-benzoxepine-4-carboxylic acid], the concentration giving a half-maximal response (EC50) is less than 100 nM.

Take `O=C(O)CC1CCc2cc(OCc3cccc(Oc4ccccc4)c3)ccc21` (stereo not drawn) [Example 15, {5-[(3-phenoxybenzyl)oxy]-2,3-dihydro-1H-inden-1-yl}acetic acid]: the 50% effective concentration (EC50) is less than 100 nM.

With `Cc1cccc(C)c1-c1cccc(COc2ccc3c(c2)CCC3CC(=O)O)c1` (stereo not drawn) [Example 17, {5-[(2′,6′-dimethylbiphenyl-3-yl)methoxy]-2,3-dihydro-1H-inden-1-yl}acetic acid], the EC50 is less than 100 nM.

In the case of `CCCN(Cc1ccc(COc2ccc3c(c2)CCCC3CC(=O)O)cc1)c1nc(-c2ccccc2)cs1` (stereo not drawn) [Example 19, {6-[(4-{[(4-phenyl-1,3-thiazol-2-yl)(propyl)amino]methyl}benzyl)oxy]-1,2,3,4-tetrahydronaphthalen-1-yl}acetic acid], the EC50 is less than 1000 nM.

Turning to `CCCN(Cc1ccc(COc2ccc3c(c2)OCCC(C(=O)O)C3)cc1)c1nc(-c2ccccc2)cs1` (stereo not drawn) [Example 21, 8-[(4-{[(4-phenyl-1,3-thiazol-2-yl)(propyl)amino]methyl}benzyl)oxy]-2,3,4,5-tetrahydro-1-benzoxepine-4-carboxylic acid], the half-maximal effective concentration (EC50) was less than 1000 nM.

Consider `Cc1cccc(C)c1-c1cccc(COc2ccc3c(c2)CCCCC3CC(=O)O)c1` (stereo not drawn) [Example 25, {2-[(2′,6′-dimethylbiphenyl-3-yl)methoxy]-6,7,8,9-tetrahydro-5H-benzo[7]annulen-5-yl}acetic acid], for which the 50% effective concentration (EC50) was less than 1000 nM.

As to `Cc1cccc(C)c1-c1cccc(COc2ccc3c(c2)OCC3CC(=O)O)c1` (stereo not drawn) [Example 33, {6-[(2′,6′-dimethylbiphenyl-3-yl)methoxy]-2,3-dihydro-1-benzofuran-3-yl}acetic acid], the EC50 was less than 100 nM.

Regarding `CCCN(Cc1ccc(COc2ccc3c(c2)OCC3CC(=O)O)cc1)c1nc(-c2ccccc2)cs1` (stereo not drawn) [Example 35, {6-[(4-{[(4-phenyl-1,3-thiazol-2-yl)(propyl)amino]methyl}benzyl)oxy]-2,3-dihydro-1-benzofuran-3-yl}acetic acid], the 50% effective concentration (EC50) is less than 100 nM.

As for `Cc1ccc2ccccc2c1-c1cccc(COc2ccc3c(c2)OCC3CC(=O)O)c1` (stereo not drawn) [Example 47, (6-{[3-(2-methyl-1-naphthyl)benzyl]oxy}-2,3-dihydro-1-benzofuran-3-yl)acetic acid], the half-maximal effective concentration (EC50) is less than 100 nM.

With `CCCCOCCOc1ccc(-c2cccc(COc3ccc4c(c3)OCC4CC(=O)O)c2)c(C)c1` (stereo not drawn) [Example 58, (6-{[4′-(2-butoxyethoxy)-2′-methylbiphenyl-3-yl]methoxy}-2,3-dihydro-1-benzofuran-3-yl)acetic acid], the concentration giving a half-maximal response (EC50) was less than 100 nM.

In the case of `O=C(O)CC1COc2cc(OCc3ccc(Cn4c(-c5ccccc5)cc5ccccc54)cc3)ccc21` (stereo not drawn) [Example 66, [6-({4-[(2-phenyl-1H-indol-1-yl)methyl]benzyl}oxy)-2,3-dihydro-1-benzofuran-3-yl]acetic acid], the EC50 is less than 100 nM.

Consider `Cc1cc(OCc2ccccc2)cc(C)c1-c1cccc(COc2ccc3c(c2)OCC3CC(=O)O)c1` (stereo not drawn) [Example 70, (6-{[4′-(benzyloxy)-2′,6′-dimethylbiphenyl-3-yl]methoxy}-2,3-dihydro-1-benzofuran-3-yl)acetic acid], for which the concentration for a half-maximal effect (EC50) was less than 100 nM.

For the molecule `O=C(O)CC1COc2cc(OCc3ccc(CN(CCc4ccccc4)c4nc(-c5ccccc5)cs4)cc3)ccc21` (stereo not drawn) [Example 73, calcium {6-[(4-{[(2-phenylethyl)(4-phenyl-1,3-thiazol-2-yl)amino]methyl}benzyl)oxy]-2,3-dihydro-1-benzofuran-3-yl}acetate], the half-maximal effective concentration (EC50) is less than 1000 nM.

With `Cc1cccc(C)c1-c1cc(COc2ccc3c(c2)OCC3CC(=O)O)ccc1OCc1ccccc1` (stereo not drawn) [Example 75, (6-{[6-(benzyloxy)-2′,6′-dimethylbiphenyl-3-yl]methoxy}-2,3-dihydro-1-benzofuran-3-yl)acetic acid], the EC50 was less than 100 nM.

Regarding `O=C(O)CC1CCCc2nc(SCc3cccc(Oc4ccccc4)c3)sc21` (stereo not drawn) [Example 78, {2-[(3-phenoxybenzyl)thio]-4,5,6,7-tetrahydro-1,3-benzothiazol-7-yl}acetic acid], the EC50 is less than 100 nM.

Regarding `C/C(=C\COc1ccc2c(c1)OCC2CC(=O)O)c1ccc2c(c1)CCCC2` (stereo not drawn) [Example 125, (6-{[(2E)-3-(5,6,7,8-tetrahydro-2-naphthalenyl)-2-buten-1-yl]oxy}-2,3-dihydro-1-benzofuran-3-yl)acetic acid], the concentration giving a half-maximal response (EC50) is less than 1000 nM.
